Experimental data: patent publication US9155691B2, “Composition for reducing skin wrinkles including PDE5 inhibitor” (SK Chemicals Co., Ltd., priority 2010, dated 2015)

Key:
[1] = system: UVB-induced skin wrinkles of hairless mice; assay: Wrinkle reduction in the skin of UVB-irradiated hairless mice (photographs); format: in vivo
Method: An examination was made as to whether the PDE5 inhibitors can substantially reduce skin wrinkles of animal models. Hairless mice, aged 7 weeks, were irradiated with UVB (290-320 nm, 312 nm) to induce wrinkles. The compound or the control was applied to each mouse and its influence on the induced wrinkles was evaluated. More specifically, the mice were irradiated with 60 mJ/cm^2 (1 minimal […] dose (MED)) for 3 days weekly during the first and second week after wrinkling, 120 mJ/cm^2 (2 MED) for 3 days during the third week after wrinkling, 180 mJ/cm^2 (3 MED) for 3 days during the fourth week after wrinkling, 240 mJ/cm^2 (4 MED) for 3 days weekly during the fifth to eighth week after wrinkling, and 240 mJ/cm^2 (4 MED) for 5 days weekly during the ninth to fifteenth week after wrinkling. During the sixteenth and seventeenth week after wrinkling, about 0.5 ml of squalene-OOH, an oxidation product of squalene by UV irradiation, was applied once using a brush to induce deeper wrinkles. […]

[2] = system: Normal human dermal fibroblasts (NHDFs); assay: Stimulatory effect on collagen production: synthesis rate of procollagen type I (C-peptide EIA, corrected for total protein); format: cell-based; conditions: NHDF, 48 hr, negative control 100.0±0.0%
Method: In this example, stimulatory effects of major PDE5 inhibitors on collagen production were investigated in order to determine whether the PDE5 inhibitors are effective in reducing skin wrinkles. Collagen is a very important substance involved in the regulation of wrinkles. Collagen disruption is known to lead to the formation of wrinkles. Collagen production plays an important role in the reduction of wrinkles.
Normal human dermal fibroblasts (NHDFs) were cultured in a complete medium. 400 μl (1×10^5 cells) of the NHDF culture was placed in each well of a 48-well plate and were cultured in an incubator (MCO-20 AIC, Sanyo, Japan) at 37 C.° and 5% CO2 for 24 hr. After completion of culturing, the culture fluid was discarded from the wells. 500 μl of D-phosphate buffered saline (D-PBS) was added to each well for washing. Thereafter, 800 μl of a test substance and 800 μl of a positive control were added to the corresponding wells. 800 μl of a serum-free medium supplemented with DMSO was added to the wells of a negative control. The culture was continued in an incubator at 37 C.° and 5% CO2 for 48 hr. After culturing was completed, the culture fluids were collected from the wells, followed by centrifugation (25 C.°, 3,000 rpm, 10 min). The supernatants were used for the quantification of procollagen type I. After 1 mL of D-PBS was added to each well of the plate, from which the culture fluids had been removed, for washing, 30 μl of a cell lysis buffer (Lot No.: 41, Cell Signaling Technology, U.S.A) was added to each well. The plate was frozen during storage in a deep freezer (DFU-657CL, Operon, Korea) at −70 C.° for 2 hr, and thawed at room temperature. The freeze-thaw procedure was repeated twice to lyse the cells. Each of the cell lysates was collected and centrifuged (Micro 17TR, Hanil Science Industrial, Korea) (4 C.°, 13000 rpm, 30 min). The supernatant was used for total protein quantification.
40 μl of the obtained supernatant was added to each well of a 96-well plate. A standard solution from a BCA protein assay kit (Lot No.: KK140637, Pierce Biotechnology Inc., USA) was diluted stepwise to different concentrations (250, 125, 50, 25, 5 and 0 μg/mL). 40 μl of the dilute solution was added to each well. 160 μl of a reagent mixture from the assay kit was added to each well. Thereafter, the resulting mixtures were allowed to react in an incubator (NB-201V, n-Biotec, Korea) at 60 C.° for 30 min. After completion of the reaction, the absorbance of each well was measured at 562 nm using an ELISA reader (PowerWave XS, BioTek Instruments, Inc., USA). The amounts of total proteins in the wells containing the test substance, the positive control and the negative control were determined by substituting the absorbance value of each well into the standard curve equation.
100 μl of the obtained supernatant was added to each well of a 96-well plate from a procollagen type I C-peptide EIA kit (Lot No.: AB01520C, Takara Bio Inc., Japan). A standard solution from the kit was diluted stepwise to different concentrations (640, 320, 160, 80, 40, 20, 10 and 0 ng/mL). 100 μl of the dilute solution was added to each well. Thereafter, the resulting mixtures were allowed to react in an incubator at 37 C.° for 2 hr. The reaction solution was discarded from each well. The well was washed with 400 μl of PBS (×3). 100 μl of solution 1 from the kit was added to each well. The reaction was carried out at 37 C.° for 1 hr. After completion of the reaction, the reaction solution was discarded from each well and 400 μl of PBS was added to the well for washing (×4). 100 μl of a tetramethylbenzidine (TMBZ) substrate solution from the kit was added to each well. The reaction was carried out at 30 C.° for 15 min. Thereafter, 100 μl of 1 N H2SO4 solution was added to each well to stop the reaction. The absorbance of each well was measured at 450 nm using an ELISA reader. […]

[3] = 10 mM (about 5%), applied to skin twice daily for 14 days, n=7

Row | Compound | Skin condition after application [1, 3] | Wrinkle reduction (skin photographs) [1, 3] | Synthesis rate of procollagen type I ([2]; 10 nM, mean of three repeats) | Synthesis rate of procollagen type I ([2]; 100 nM, p<0.01) | Skin condition after application (cornified layers) ([1]; 0.05%, applied to skin twice, later once daily, n=6)
1 | CCCc1nn(C)c2c(=O)[nH]c(-c3cc(S(=O)(=O)N4CCN(C)CC4)ccc3OCC)nc12 [sildenafil] | gradually became clean | Wrinkle reduction was observed | 108.6±8.1% | 160.7±12.1% | 
2 | CCCc1nc(C)c2c(=O)[nH]c(-c3cc(S(=O)(=O)N4CCN(CC)CC4)ccc3OCC)nn12 [vardenafil] |  |  | 140.7±7.8% | 162.7±10.0% | 
3 | CC1=C(/C=C/C(C)=C/C=C/C(C)=C/C(=O)O)C(C)(C)CCC1 [retinoic acid] |  |  |  |  | Cornified layers were formed and continuously peeled
4 | CN1CC(=O)N2[C@H](c3ccc4c(c3)OCO4)c3[nH]c4ccccc4c3C[C@@H]2C1=O [tadalafil] |  |  | 147.2±8.1% | 174.7±10.2% | 
